One test deals with KB. Briefly: Cytotoxicity against human KB cells by MTT assay. It counts as functional. Particulars: read-out: ED50 (the source's name).
Test [1] can be described thus: Cytotoxicity against human HEPA 59T/VGH cells by MTT assay. Format: functional. Particulars: read-out: ED50 (the source's name). Background: Tetrazolium assays rely on reduction of a dye to a coloured formazan, in cell work by metabolically active cells.

Values after ≈ are worked out from the molar mass of the structure shown.

`C=C(C)[C@@H]1CC(=O)C[C@@H]2O[C@](C)(CC2=O)C[C@@H]2C=C(C(=O)O2)[C@@H](OC)C1` [SCABROLIDE C]: the EC50 was found to be 11.9 mg/L (≈ 32.8 µM) with KB and 17.8 mg/L (≈ 49.1 µM) in test [1].
In the case of `C=C(C)[C@@H]1CC(=O)CC2=C(C1)[C@@H]1C(=O)O[C@@H]3C[C@](C)(O)[C@H](C2=O)[C@H]13` [SCABROLIDE A], the EC50 (in the test with KB; in test [1]) was greater than 20 mg/L in each case.
With `C=C(C)[C@H]1C/C=C2\C(=O)O[C@H](C[C@@]3(C)CC(=O)[C@@H](CC(=O)C1)O3)[C@@H]2O`, the EC50 with KB came out at 2.5 mg/L (≈ 7.18 µM); in test [1], 2.6 mg/L (≈ 7.46 µM).
Take `C=C(C)[C@@H]1CC(=O)[C@H]2[C@H](C1)[C@@H]1C(=O)O[C@@H]3C[C@@]4(C)O[C@@H]2C(=O)[C@@H]4[C@H]13`: the EC50 (with KB; in test [1]) was greater than 20 mg/L throughout.
`C=C(C)[C@H]1C/C=C(\C(=O)OC)CC(=O)C[C@@]2(C)CC(=O)[C@@H](CC(=O)C1)O2` [NORCEMBRENE 5]: the EC50 was greater than 20 mg/L in the test with KB and 17.5 mg/L (≈ 48.3 µM) in test [1].
As to `C=C(C)[C@H]1C/C=C2\C(=O)O[C@H](C[C@@]3(C)CC(=O)[C@@H](CC(=O)C1)O3)[C@H]2O`, the EC50 in the test with KB was 2.3 mg/L (≈ 6.6 µM); in test [1] it was 2.4 mg/L (≈ 6.89 µM).
Take `C=C(C)[C@H]1CC[C@]23O[C@H]2[C@@H](C[C@@]2(C)CC(=O)[C@H](CC(=O)C1)O2)OC3=O` [SCABROLIDE D]: the EC50 (in the test on KB; in test [1]) was greater than 20 mg/L in each case.
On to `COc1cccc2c1C(=O)c1c(O)c3c(c(O)c1C2=O)C[C@@](O)(C(=O)CO)C[C@@H]3O[C@H]1C[C@H](N)[C@H](O)[C@H](C)O1` [DOXORUBICIN], for which the EC50 (with KB; in test [1]) was 0.3 mg/L (≈ 0.552 µM) each time.

The values are drawn from ChEMBL document CHEMBL1150168, “Scabrolides A-D, four new norditerpenoids isolated from the soft coral Sinularia scabra” (2002).
